Where a name gives a salt, the structure may show the parent alone. Marks after values point to notes of the source that are not given here.
Tests used:
[1] = Trial 1: calcium retention (intake minus feces and urine excretion); type: in vivo, Wistar rats; details: 34 h feces and urine collection, rats
Method: (§1) Twenty-six 2 month-old male Wistar rats, weighing 240±15 g, were orally administered with a single gelatin capsule containing either ACC (amorphous calcium carbonate) or CCC (crystalline calcium carbonate) intrinsically labeled with ^45Ca, followed by measurements of calcium fractional absorption in serum and calcium excretion.
Feces and urine were collected during the 17 h starvation phase during the acclimation period (baseline) and during the entire 34 h of the experiment to evaluate calcium. Samples of urine (500 μL) were transferred into plastic vials filled with scintillation liquid. Feces were dried overnight at 70° C. in an oven. The samples were ground in a mortar until fine homogenization. Feces samples (200 mg) were placed into 5 ml of 1 N NaOH solution (Gadot, Netanya, Israel), incubated for 3 hours at 80° C. and centrifuged for 10 minutes at 3,600 g. Duplicate samples of the supernatant (30 μL) were transferred into plastic vials containing scintillation liquid. Radioactivity of the urine and feces samples was measured using a liquid scintillation counter. Retention values were calculated by subtracting the radioactivity measured in the feces and urine from the given dose […].

[2] = test system: ovariectomized (OVX) rat model; experiment: Trial 6: micro-CT of distal femur and 4th lumbar vertebra, ACC with or without alendronate; type: in vivo, Sprague Dawley rats; details: for SMI / TBPf / Tb. N / Tb. Sp / Tb. Th: OVX rats, 4 months treatment
Method: The inventors have conducted a study aiming to evaluate the effects of Amorphous Calcium Carbonate (ACC) on bone mineral density and bone fraction in metabolic bone disorders, and specifically osteoporosis as presented in the ovariectomized (OVX) rat model wherein the ACC is administered in combination with a standard medication for osteoporosis. In the present trial, five groups of rats were tested (4 OVX and 1 sham). Following operation, all rats were left untreated (fed with standard laboratory diet) to develop osteopenia for a period of 2 months. […] In addition, the animals were i.v injected (3 times/week) with either saline or 2 μg/kg alendronate (ALN) according to their group assignment, as described in Table 16.
A CCC mix containing 1% elemental calcium from crystalline calcium carbonate (Socal® Precipitated Calcium Carbonate), and an ACC mix containing 1% elemental calcium from stable amorphous calcium carbonate (containing 1% phosphoserine and 2% Citrate; Amorphical Ltd., Beer-Sheva, Israel).
Following 2 months, rats started treatment according to their assignment as described in Table 16 for a period of 4 months. […] Food consumption and body weight were recorded weekly (Table 17). At the end of the treatment period, all rats were sacrificed by CO2.

[3] = Trial 1: serum calcium pharmacokinetics after single oral capsule of 45Ca-labeled calcium carbonate; parameters: species or system Wistar rats; details: rat, in vivo
Method: as §1
All animals were treated according to the Israel Animal Welfare Act under the supervision of the Ben-Gurion University Animal Care and Use program. Fifty-one two month-old male Wistar rats (Harlan-Teklad, Jerusalem, Israel), weighing 240±15 g, were randomly housed in 12 stainless steel cages in an environmentally-controlled room (23° C. temperature, 12:12 h light:dark cycle). The rats were fed laboratory rat chow pellets adequate in nutrients ad libitum (Koffolk, Petah-Tikva, Israel) and had free access to water for 48 h. Four days before the beginning of the experiment, the regular diet was replaced with a low calcium diet containing 0.24±0.05% calcium (0.675±0.05% phosphate), specially prepared by mixing two food types containing, respectively, 0.01% calcium (0.3% phosphate; Harlan-Teklad) and 1% calcium (0.8% phosphate; Koffolk). The two food types were separately ground in a mill to yield two powders which were dry mixed in a ratio of 4:1, respectively, until fine homogenization. The homogenized powder was extruded to form new food pellets.
Seventeen hours prior to capsule administration, the rats were weighed and blood samples were taken (baseline). The rats were then placed into individual metabolic cages and deprived of food and water until 3 h post-capsule administration. Three and 24 h post-dosing, ˜10 g of low calcium food pellets (0.01% calcium; Harlan-Teklad) were given to each rat. Distilled water was allowed ad libitum starting three h post-capsule administration.
Each rat was lightly sedated for 30 seconds with isoflurane (Minrad) diluted 1:4 (v:v) with propylene glycol (BioLab). A single capsule containing a specific calcium carbonate preparation (i.e. CCC, ACC, or ACC-C; n=17 for each group) was administered intragastrically to each of the experimental rats using a stainless steel rat administration syringe (Harvard Apparatus).
Blood samples of […] were taken from each rat's tail vein 17 h prior to capsule administration (time 0) and 2, 3, 6, 10, 24 and 34 h post-administration. The blood samples were immediately centrifuged for 10 minutes at 3000 g using a tabletop centrifuge (Hettich Zentrifugen, Bach, Switzerland). Duplicate samples (30 μl) of the supernatant serum were transferred into plastic vials containing scintillation liquid (Zinsser Analytic, Berkshire, UK) and radioactivity was measured using a liquid scintillation counter (Tri-Carb 2100TR, PerkinElmer, Boston, Mass.). Plasma radioactivity from the given dose were normalized according to the measured radioactivity and specific radioactive dose that each rat received [(serum cpm×100)/(total cpm×sample volume)].
Non-compartmental analysis of an individual rat's calcium concentration versus time data was performed using WinNonLin 5.2 software (Pharsight, Mountain View, Calif.).

[4] = test system: ovariectomized (OVX) rat model; experiment: Trial 7: micro-CT of distal femur and 4th lumbar vertebra; details: for Tb. N / Tb. Sp / Tb. Th: OVX rats, 90 days; for DA: sham group lower than the OVX group by / SMI: sham group lower than the OVX group by / TBPf: sham group lower than the OVX group by: 4th-lumbar vertebra, difference from sham; for trabecular bone region in μCT three-dimensional reconstruction: distal femur and 4th vertebra, FIG. 7, in comparison to the Sham; for trabecular femoral BMD: Sham group higher compared to the OVX group by: femur, difference from Sham
Method: In the study, five groups of rats were tested (4 ovariectomized and 1 sham). The OVX animals were fed with special food mixtures in the form of pellets from four different calcium sources: commercial crystalline calcium carbonate served as control (mix A), natural ACC (Gastrolith powder) (mix B), synthetic ACC (comprising trace amounts of phospho-serine) (mix C), and commercial crystalline calcium citrate (mix D). Sham group was administrated with the same food as the control. Pellets from all four mixtures contained ˜0.5% elemental calcium as confirmed by atomic absorption apparatus (Varian AA240, Palo Alto, Calif., USA) and described in Table 19 with no added vitamin D, except for the amounts found in the original food pellets (22 IU vitamin D/g).
For the administration of the different calcium sources, special food pellets containing were prepared. Low calcium rodent pellets containing 0.02% calcium (Rat chow #TD95027 Harlan Inc., Jerusalem, Israel) was finely grounded and separately mixed with four different calcium sources. […] Every mix was separately pelleted and kept in a sealed bag at room temperature.
Rats were randomly assigned and operated according to their assigned five groups: Sham (sham-Ovariectomized) fed with mix A, and four other groups were ovariectomized (OVX) using a bilateral dorsal approach according to Lasota and Danowska-Klonowska (2004) Rocz Akad Med Bialymst 49 Suppl 1:129-131, and divided to OVX Control (fed with mix A), OVX Gast (fed with mix B), OVX ACC (fed with mix C) and OVX Citrate (fed with mix D). Following operation, rats were provided a 7 days recovery period under the same conditions as the acclimation period, standard laboratory diet ad-libitum and de-ionized water containing 1.5 ml/400 ml Dipyrone (Vitamed Ltd, Binyamina, Israel), and 1 mg/kg Enrofloxacin (Buyer Ltd. Leverkusen, Germany).
At the end of the recovery period the rats were group-housed in 47 cages (2 rats/cage) according to the group assignment, under the same controlled room conditions as described above. The assigned supplemental pellets and de-ionized water were provided ad-libitum during the entire treatment period (90 days). […] For dynamic histomorphometric analysis fluorochrom dye Calcein (20 mg/kg body mass; Sigma-Aldrich, Israel) was IP injected to all rats at days 76 and 86. On day 90, rats were individually housed in metabolic cages and deprived from food and water for 18 h. Urine was collected from each metabolic funnel and was stored at −80° C. for future analysis of bone resorption biochemical marker at end of the experiment (Time 90). Immediately after urine sampling, serum samples were extracted for evaluation of formation biochemical marker of day 90 and stored in the same manner as described at day 0. All rats were sacrificed by CO2. Right femurs and 4th lumbar vertebras were dissected, wrapped with gaze pads soaked with saline buffer and kept in −80° C. for measurement of bone micro-CT scan. The 5th lumbar vertebras were stored in the same conditions as the right femurs for mechanical testing. Right tibias were dissected and placed immediately for 24 h at 4° C. in 3.7% formaldehyde solution (F1636, Sigma-Aldrich, Israel) for structural and dynamic histomorphometric measurements.
Trabecular and cortical bone microarchitecture of right femurs and 4th lumbar vertebras were analyzed using a μCT scanner (Skyscan 1174, Kartuizersweg Kontich, Belgium).

[5] = test system: ovariectomized (OVX) rat model; experiment: Trial 7: histomorphometry of un-decalcified proximal tibia sections; type: in vivo, Sprague Dawley rats; details: for BFR/BS / MAR / MS/BS: dynamic (calcein); for BFR/BS / MAR / MS/BS / BV/TV / Tb. N / Tb. Sp / Tb. Th: OVX rats; for BV/TV / Tb. N / Tb. Sp / Tb. Th: structural, 90 days
Method: (§2) All rats were sacrificed by CO2.
Right tibias were removed from the formaldehyde solution and dehydrated through an ethanol gradient, cleared using xylene (24250521, Bio-Lab Ltd. Haifa, Israel), and infiltrated with 80% methylmethacrylate (MMA; M5599, Sigma Aldrich, Rehovot, Israel)+20% dibutyl phthalate (DBP; 61-5062, Merck Ltd, Hohenbrunn, Germany) for 3 days at 4° C. Specimens were then transferred to MMA+DBP+Benozoyl peroxide (617008, Merck Ltd, Hohenbrunn, Germany) solution for another 6 days infiltration at 4° C. Following infiltration procedure, specimens were embedded in MMA+DBP+2.5% Benozoyl peroxide under a temperature gradient (from 38° C. to 50° C. over a period of 4 days). Mid-sagittal (4 μm) un-decalcified sections from each specimen were cut using a Lecia RM 2025 microtome (Lecia Instruments Ltd, Petach Tikva, Israel) connected to tungsten carbide knifes (Disposable blade; TC65, Rhenium Inc. Bet-Nekufa, Israel). Most sections were stained with McNeal's tetrachrome for structural histomorphometry. The remaining sections were left unstained for dynamic histomorphometry.
Measurement of both structural and dynamic histomorphometry of the proximal tibia metaphisyes were obtained using a semi-automatic analysis system (Bioquant OSTEO, ver. 7.20.10, BIOQUANT Image Analysis Corporation Nashville, USA) which is connected to a microscope (Nikon Optiphot 2, Kingston, England) equipped with fluorescent light source.

[6] = test system: ovariectomized (OVX) rat model; experiment: Trial 7: mechanical strength of the 5th lumbar vertebra (compression test); type: in vivo, Sprague Dawley rats
Method: as §2
Mechanical properties (Ultimate force, Energy to ultimate force, Toughness and Energy to yield) were obtained from the compression tests of 5th lumbar vertebral body (L5). Calculation of the material properties were performed by measuring the height of the vertebral body and the average of caudal and cranial diameters using a caliper. Cross sectional area (CSA) and bone volume (BV) were obtained by μCT scanning that covered the entire bone including both trabecular and cortical shell.

[7] = test system: ovariectomized (OVX) rat model; experiment: Trial 7: bone turnover biochemical markers (urine DPD, serum OC) by EIA; type: in vivo, Sprague Dawley rats; details: day 90, OVX rats
Method: as §2
Serum Osteocalcin (OC) concentration was determined by EIA kit (#BT-490, Biomedical Technologies Inc. Stoughtone, USA) following a 1:10 serum dilution.
Urinary Deoxypyridinoline (DPD) concentration was determined by commercial EIA kit (#8007, Qudiel Inc. San Diego, USA) following a 1:50 dilution. DPD levels were normalized to Creatinine levels (#8009, Qudiel Inc. San Diego, USA).

Row | Compound | AUC∞ [3] | Cmax [3] | Tmax [3] | Tb. N ([4]; 4th lumbar vertebra) | Tb. Sp ([4]; 4th lumbar vertebra) | Tb. Th ([4]; 4th lumbar vertebra) [μm] | DA: sham group lower than the OVX group by [4] [%] | SMI: sham group lower than the OVX group by [4] [%] | TBPf: sham group lower than the OVX group by [4] [%] | trabecular bone region in μCT three-dimensional reconstruction [4] | Tb. N ([4]; distal femur metaphysis) | Tb. Sp ([4]; distal femur metaphysis) | Tb. Th ([4]; distal femur metaphysis) | trabecular femoral BMD: Sham group higher compared to the OVX group by [4] [%] | trabecular bone fraction and condensed trabeculas values lower compared to the Sham (average) [5] [%] | trabecular separation higher in comparison to Sham [5] [%] | BFR/BS [5] | MAR [5] [μm/day] | MS/BS [5] | BV/TV [5] | other results
1 | O=C([O-])[O-].[Ca+2] [CCC, crystalline calcium carbonate] | 109.7 ± 6.4 ^a μg × h/mL | 5.8 ± 0.07 ^a μg/mL | 3.0 ± 0.3 ^a h |  |  |  |  |  |  |  |  |  |  |  |  |  |  |  |  |  | retention of the received dose [1]: 48.5±1.3%; SMI ([2]; 4th lumbar vertebra): 1.62; TBPf ([2]; 4th lumbar vertebra): 8.5 mm^−1; Tb. N ([2]; 4th lumbar vertebra): 1.75 mm^−1; Tb. Sp ([2]; 4th lumbar vertebra): 374 μm; Tb. Th ([2]; 4th lumbar vertebra): 98.4 μm; trabecular bone region in μCT three-dimensional reconstruction ([2]; distal femur and 4th vertebra, FIG. 5, compared to CCC / third group): lowest trabecular bone region; SMI ([2]; distal femur metaphysis): 1.66; TBPf ([2]; distal femur metaphysis): 7.6 mm^−1; Tb. N ([2]; distal femur metaphysis): 1.5 mm^−1; Tb. Sp ([2]; distal femur metaphysis): 682 μm; Tb. Th ([2]; distal femur metaphysis): 110 μm
2 | O=C(O)CC(O)(CC(=O)O)C(=O)O [Citrate, calcium citrate] |  |  |  | 1.59^b mm^−1 | 262^b μm | 86.6 | 22 | 43 | 91 | lowest trabecular bone region | 2.4^b mm^−1 | 226^bd μm | 29.1^b μm | 63 | 55 | 148 | 0.159^a μm^2/μm/day | 1.40 | 8.25^a % | 12.8^b % | trabecular bone fraction and its number, Citrate compared with Control ([4]; micro-CT): No significant differences; trabecular thickness higher compared to Control [5]: 13%; MS/BS lower from the ACC group ([5]; Citrate vs ACC): 26%; bone formation rate lower from ACC ([5]; Citrate vs ACC): 26%; MS/BS lower from the Gast group ([5]; Citrate vs Gast): 29%; bone formation rate lower from Gast ([5]; Citrate vs Gast): 28%; Tb. N [5]: 2.3^b mm^−1; Tb. Sp [5]: 318^b μm; Tb. Th [5]: 53^b μm; mechanical strength properties lower in comparison to Sham (average) [6]: 40%; DPD (urine deoxypyridinoline resorption marker) [7]: 43.55^e nmol/mmol Cr; OC (serum osteocalcin formation marker) [7]: 15.7^a ng/ml
3 | O=C([O-])[O-].[Ca+2] [Control, calcium carbonate] |  |  |  | 1.57^b mm^−1 | 254^b μm | 87.5 | 22 | 43 | 91 | lowest trabecular bone region | 2.2^b mm^−1 | 248^b μm | 29.0^b μm | 64 | 55 | 130 | 0.164^a μm^2/μm/day | 1.30 | 8.31^a % | 12.8^b % | BV/TV and Tb.N lower on average in comparison to the Sham ([4]; distal femur): 65%; BV/TV and Tb.N lower on average in comparison to the Sham ([4]; vertebra): 60%; Tb. N [5]: 2.5^b mm^−1; Tb. Sp [5]: 296^b μm; Tb. Th [5]: 47.1^a μm; mechanical strength properties lower in comparison to Sham (average) [6]: 41%; DPD (urine deoxypyridinoline resorption marker) [7]: 36.65^be nmol/mmol Cr; OC (serum osteocalcin formation marker) [7]: 14.8^a ng/ml
4 | amorphous calcium carbonate [ACC] | 134.5 ± 7.0 ^b μg × h/mL | 8.1 ± 0.8 ^b μg/mL | 2.8 ± 0.2 ^a h |  |  |  |  |  |  |  |  |  |  |  |  |  |  |  |  |  | 
